From patent US9499530B2 (HANGZHOU MINSHENG INSTITUTES FOR PHARMA RESEARCH, priority 2011, dated 2016)
Entries after “also recorded” stand apart in the source; their conditions may differ.

Legend:
NCI-H1975 xenograft = assay: Growth inhibition of NCI-H1975 xenograft in nude mice; type: in vivo; conditions: for T/C (%) / Tumor volume (mm^3) D 28: 5 consecutive days weekly for four weeks, D 28; for activity against NC1-H1975 (in words): tumor line with gene mutation, resistant to lapatinib
Description: Administration route: intragastric administration. Administration volume: 0.1 ml/10 g. Administration and frequency: administrating for 5 consecutive days and suspending administration for two days weekly for four weeks. Observation time: continuous observation for 28 days after starting administration. The tumor volume was measured twice a week. At the end of the experiment, the animals were sacrificed, weighed and photographed. Statistical method: SPSS 10.0 statistical software package, one-factor analysis of variance.

[1] = biological target: KDR (Vascular Endothelial Growth Factor Receptor 2) (Homo sapiens, UniProt P35968); assay: ELISA protein tyrosine kinase inhibition, KDR; type: biochemical; conditions: for IC50: ELISA, Poly(Glu, Tyr) 4:1 substrate, ATP 5 μM, test samples at 10-5 mol/l, read-out: KDR inhibitory activity (IC50 class)
Chain of KDR (Vascular Endothelial Growth Factor Receptor 2) (P35968 20-1356): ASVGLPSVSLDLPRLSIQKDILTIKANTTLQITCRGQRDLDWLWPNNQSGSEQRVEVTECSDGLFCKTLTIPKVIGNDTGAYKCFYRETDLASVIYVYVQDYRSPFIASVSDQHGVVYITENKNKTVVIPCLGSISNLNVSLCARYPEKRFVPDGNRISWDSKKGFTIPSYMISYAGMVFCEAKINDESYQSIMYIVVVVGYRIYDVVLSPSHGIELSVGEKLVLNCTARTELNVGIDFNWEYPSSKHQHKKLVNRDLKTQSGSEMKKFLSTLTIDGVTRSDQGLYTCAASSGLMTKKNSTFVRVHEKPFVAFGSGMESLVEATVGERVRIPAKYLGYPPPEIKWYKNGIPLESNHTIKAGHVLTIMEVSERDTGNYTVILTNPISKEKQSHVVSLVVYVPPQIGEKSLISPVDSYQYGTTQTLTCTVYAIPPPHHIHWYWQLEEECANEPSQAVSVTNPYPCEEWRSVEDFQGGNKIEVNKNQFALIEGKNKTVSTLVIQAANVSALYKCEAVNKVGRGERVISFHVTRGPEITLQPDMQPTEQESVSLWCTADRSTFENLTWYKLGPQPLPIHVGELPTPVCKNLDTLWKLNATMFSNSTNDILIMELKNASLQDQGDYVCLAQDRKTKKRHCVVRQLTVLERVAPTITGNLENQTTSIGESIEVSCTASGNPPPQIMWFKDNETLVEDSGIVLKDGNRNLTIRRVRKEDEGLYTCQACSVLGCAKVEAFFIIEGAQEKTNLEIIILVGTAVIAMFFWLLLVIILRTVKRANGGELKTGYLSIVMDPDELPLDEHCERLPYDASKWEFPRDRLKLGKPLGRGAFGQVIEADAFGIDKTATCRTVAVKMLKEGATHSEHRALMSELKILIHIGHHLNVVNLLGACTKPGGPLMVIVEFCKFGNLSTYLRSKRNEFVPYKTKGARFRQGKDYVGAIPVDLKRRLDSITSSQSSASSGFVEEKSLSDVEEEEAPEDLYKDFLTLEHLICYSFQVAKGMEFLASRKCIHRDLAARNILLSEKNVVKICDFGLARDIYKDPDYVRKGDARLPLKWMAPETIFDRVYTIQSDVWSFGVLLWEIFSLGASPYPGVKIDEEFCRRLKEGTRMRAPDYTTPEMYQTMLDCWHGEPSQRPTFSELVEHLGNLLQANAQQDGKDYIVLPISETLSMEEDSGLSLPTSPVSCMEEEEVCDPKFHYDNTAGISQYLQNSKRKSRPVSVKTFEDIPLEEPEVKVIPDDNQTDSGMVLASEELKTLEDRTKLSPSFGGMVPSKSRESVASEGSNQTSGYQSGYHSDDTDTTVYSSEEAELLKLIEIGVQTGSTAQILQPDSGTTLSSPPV
Description: (§1) Determining the Effect of Test Samples at a Concentration of 10-5 Mol/l on the Activity of the Substrate Phosphoryation Catalyzed by EGFR (Epidermal Growth Factor Receptor 1), ErbB-2 (Epidermal Growth Factor Receptor 2), ErbB-4, KDR (Vascular Endothelial Growth Factor Receptor 2) Protein Tyrosine Kinases at Molecular Level
(§2) Enzyme-Linked Immunosorbent Assay (ELISA)
(§3) Main instrument: wavelength-tunable microplate reader (VERSAmax).
(§4) Main reagents: kinase reaction substrate Poly(Glu, Tyr) 4:1 from Sigma; anti-phosphotyrosine monoclonal antibody PY99 from Santa Cruz; horseradish peroxidase-labeled goat anti-mouse IgG from Calbiochem; ATP, DTT, OPD from Amresco, and ELISA plate from Corning.
(§5) Poly(Glu, Tyr)4:1 as an enzyme substrate was diluted by potassium ion-free PBS into 20 μg/ml, and an ELISA plate was coated and subjected to reaction for 12-16 h at 37° C. After the liquid in wells was removed, the plate was washed three time by T-PBS, 5 min for each time. The ELISA plate was then dried in an oven at 37° C. The coated wells were added with the test samples: the test samples were prepared for a stock solution with a concentration of 1×10^−2M in DMSO. The aliquot solution was stored at −20° C., and diluted to the desired concentration with reaction buffer before use. The resulting solution was added into the wells so that the final concentration of 10-5 mol/l in 100 μL reaction system can be obtained. At the same time, a positive control well was set up and a positive control compound Su11248 was added. ATP and test tyrosine kinases were added: ATP solution diluted with reaction buffer was added (the final concentration of ATP is 5 μM). Finally, the test tyrosine kinases solution diluted with reaction buffer was added. The total volume of the reaction system was […]. Meanwhile, a negative control well and a control well without enzyme were set up. The reaction system was placed in a wet box, and shaked for 1 hour at 37° C., shielding from light. After the reaction was complete, the plate was washed by T-PBS three times. Antibody PY99 was added at 100 μL/well; and the plate was shaked for 30 min at 37° C. After the reaction was complete, the plate was washed with T-PBS three times. Horseradish peroxidase-labeled goat anti-mouse IgG was added at 100 μL/well, and the plate was shaked for 30 min at 37° C. The plate was washed with T-PBS three times. OPD developing liquid was added at 100 μL/well, and reacted for 1-10 min at room temperature, shielding from light. 50 μL of 2 M H2SO4 was added to stop the reaction. A492 value was determined using wavelength-tunable microplate reader. The inhibition ratio of the samples can be calculated by the following equation: […]

[2] = test system: human lung cancer A549 xenograft; assay: Growth inhibition of A549 xenograft in nude mice; type: in vivo; conditions: for TV (mm^3) End / TV (mm^3) Start / T/C (%): A549 xenograft; for TV (mm^3) End / TV (mm^3) Start / T/C (%) / Weight (g) End / Weight (g) Start: 200 mg/kg intragastric; for TV (mm^3) End / T/C (%) / Weight (g) End: 5 times per week for four weeks; for TV (mm^3) Start / Weight (g) Start: start of dosing; for T/C (%): relative tumor growth ratio; for Weight (g) End / Weight (g) Start: nude mice with A549 xenograft
Description: Objective of the test: Determining the inhibition of some compounds of the present invention to the growth of human lung cancer A549 transplanted into nude mice and the action intensity thereof.
1. Human lung cancer A549 xenograft in nude mice, which was set up by subcutaneously transplantion of the human lung cancer A549 cell lines into right axillary fossa of nude mice. The amount of inoculation is 2×10^6 cells/mouse. Xenograft inoculated into the nude mice was passaged for 3 generations before use.
2. The solvent used in the experiments is: 0.5% of hydroxypropylmethyl cellulose and 0.1% of Tween-80.
3. Vigorous growing tumor tissues were selected to be chopped into approximately 1 mm^3. Under sterile conditions, the tumor tissue blocks were subcutaneously transplanted into right axillary fossa of nude mice. The diameters of the xenograft in nude mice were measured with a vernier caliper. When tumors reached approximately 100-300 mm^3 in size, the animals were randomly divided into groups, wherein there are 12 animals in solvent control group, and 6 animals per group in the other groups. […] The administered dosages were both 200 mg/kg, 5 times per week for consecutive four weeks. The diameters of the tumors were measured twice per week. The negative control group was intragastricly administrated the same amount of solvent. After the experiment, the mice were sacrificed. The tumors were surgically stripped and weighed. The tumor volume (TV) was calculated by the following equation:
[formula] in which a and b represents for the length and the width respectively.
According to the measured results, the relative tumor volume (RTV) was calculated. The calculation equation was: RTV=Vt/V0, wherein V0 is the tumor volume measured during cage administration (i.e. d0), Vt is the tumor volume of each measurement. The evaluation index of anti-tumor activity was the relative tumor growth ratio T/C (%), which was calculated by the following equation: […]
TRTV: treatment group's RTV; CRTV: negative control group's RTV.

[3] = biological target: ErbB-2 (Epidermal Growth Factor Receptor 2) (Homo sapiens, UniProt P04626); assay: ELISA protein tyrosine kinase inhibition, ErbB-2; type: biochemical; conditions: Poly(Glu, Tyr) 4:1 substrate, ATP 5 μM, test samples at 10-5 mol/l, read-out: ErbB2 inhibitory activity (IC50 class)
Description: as §1, §2, §3, §4, §5

ErbB-4 = ErbB-4 (Homo sapiens, UniProt Q15303); assay: ELISA protein tyrosine kinase inhibition, ErbB-4; type: biochemical; conditions: for IC50: ELISA, Poly(Glu, Tyr) 4:1 substrate, ATP 5 μM, test samples at 10-5 mol/l, read-out: ErbB4 inhibitory activity (IC50 class)
Chain of ErbB-4 (Q15303 26-1308): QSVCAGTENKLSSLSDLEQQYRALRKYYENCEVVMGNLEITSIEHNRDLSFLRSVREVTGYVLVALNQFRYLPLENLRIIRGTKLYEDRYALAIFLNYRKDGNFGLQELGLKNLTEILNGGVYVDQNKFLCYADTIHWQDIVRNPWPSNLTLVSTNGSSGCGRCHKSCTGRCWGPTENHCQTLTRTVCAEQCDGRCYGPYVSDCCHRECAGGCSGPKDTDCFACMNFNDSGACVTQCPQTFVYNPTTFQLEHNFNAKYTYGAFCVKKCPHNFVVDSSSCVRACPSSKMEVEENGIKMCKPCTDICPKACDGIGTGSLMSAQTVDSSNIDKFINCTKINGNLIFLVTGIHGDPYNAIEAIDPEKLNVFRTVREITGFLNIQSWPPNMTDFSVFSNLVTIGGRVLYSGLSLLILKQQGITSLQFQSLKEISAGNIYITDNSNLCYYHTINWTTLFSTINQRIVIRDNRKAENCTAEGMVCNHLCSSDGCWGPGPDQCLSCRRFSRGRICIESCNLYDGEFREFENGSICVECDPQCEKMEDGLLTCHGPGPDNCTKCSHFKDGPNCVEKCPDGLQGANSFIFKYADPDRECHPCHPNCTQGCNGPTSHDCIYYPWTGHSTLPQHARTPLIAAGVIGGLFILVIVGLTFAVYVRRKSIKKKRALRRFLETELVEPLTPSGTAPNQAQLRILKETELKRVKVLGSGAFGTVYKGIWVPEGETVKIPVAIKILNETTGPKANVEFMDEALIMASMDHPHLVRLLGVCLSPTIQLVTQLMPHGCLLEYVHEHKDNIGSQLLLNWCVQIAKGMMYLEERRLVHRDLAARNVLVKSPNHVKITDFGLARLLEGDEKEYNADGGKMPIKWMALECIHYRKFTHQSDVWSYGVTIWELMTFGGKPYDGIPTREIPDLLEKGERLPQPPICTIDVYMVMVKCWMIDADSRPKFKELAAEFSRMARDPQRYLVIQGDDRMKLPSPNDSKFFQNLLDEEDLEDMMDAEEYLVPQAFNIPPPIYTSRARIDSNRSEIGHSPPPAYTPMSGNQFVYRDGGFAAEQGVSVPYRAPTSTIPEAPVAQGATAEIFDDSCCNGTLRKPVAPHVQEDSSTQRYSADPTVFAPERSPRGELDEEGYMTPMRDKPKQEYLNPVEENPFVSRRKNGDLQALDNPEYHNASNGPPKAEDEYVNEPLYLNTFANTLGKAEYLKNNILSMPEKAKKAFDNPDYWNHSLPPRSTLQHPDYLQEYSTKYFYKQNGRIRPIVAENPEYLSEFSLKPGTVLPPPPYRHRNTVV
Description: as §1, §2, §3, §4, §5

[4] = biological target: EGFR (Epidermal Growth Factor Receptor 1) (Homo sapiens, UniProt P00533); assay: ELISA protein tyrosine kinase inhibition, EGFR; type: biochemical; conditions: for IC50: ELISA, Poly(Glu, Tyr) 4:1 substrate, ATP 5 μM, test samples at 10-5 mol/l, read-out: EGFR inhibitory activity (IC50 class)
Description: as §1, §2, §3, §4, §5

[5] = NC1-H1975 xenograft, intragastric

COc1cc2ncnc(Nc3ccc(F)c(Cl)c3)c2cc1OCCCN1CCOCC1 [Gefitinib]
T/C (%) (NCI-H1975 xenograft; [5]): 87.89% | Tumor volume (mm^3) D 28 (NCI-H1975 xenograft; [5]): 2164.44 ± 1064.85 mm^3 | activity against NC1-H1975 (in words) (NCI-H1975 xenograft): almost no activity

O=C(O)CCC(NCc1ccc(-c2ccc3ncnc(Nc4ccc(OCc5cccc(F)c5)c(Cl)c4)c3c2)o1)C(=O)O (stereo not drawn) [MS 23, N-(3-chloro-4-((3-fluorobenzyl)oxy)phenyl)-6-(5-(((1,3-dicarboxypropyl)amino)methyl)-2-furyl)-4-quinazolinamine]
inhibitory activity against KDR (in words) [1]: better inhibitory activity; also recorded: higher inhibitory activity | IC50 [1]: < 10 µM | TV (mm^3) End [2]: 804.3 ± 230.3^▴ mm^3 | TV (mm^3) Start [2]: 153.5 ± 74.8 mm^3 | T/C (%) [2]: 38.2% | Weight (g) End [2]: 25.7 ± 2.0 g | Weight (g) Start [2]: 25.3 ± 1.5 g | growth inhibition of human lung cancer A549 compared with positive control lapatinib (in words) ([2]; xenograft in nude mice, 200 mg/kg): better effective inhibition; also recorded: better growth inhibition effect | IC50 [3]: < 10 µM | IC50 (ErbB-4): < 10 µM | IC50 [4]: < 10 µM

CS(=O)(=O)CCNCc1ccc(-c2ccc3ncnc(Nc4ccc(OCc5cccc(F)c5)c(Cl)c4)c3c2)o1 [Lapatinib, lapatinib, reference compound]
T/C (%) (NCI-H1975 xenograft; [5]): 104.26% | Tumor volume (mm^3) D 28 (NCI-H1975 xenograft; [5]): 2420.50 ± 1405.01 mm^3 | TV (mm^3) End [2]: 943.2 ± 225.7^▴ mm^3 | TV (mm^3) Start [2]: 153.6 ± 64.8 mm^3 | Weight (g) End [2]: 26.3 ± 3.3 g | Weight (g) Start [2]: 24.1 ± 2.9 g

OCC(CO)NCc1ccc(-c2ccc3ncnc(Nc4ccc(OCc5cccc(F)c5)c(Cl)c4)c3c2)o1 [MS6·dimethanesulfonate, N-(3-chloro-4-((3-fluorobenzyl)oxy)phenyl)-6-((5-(2-(1,3-dihydroxypropyl)amino)methyl)-2-furyl)-4-quinazolinamine]
IC50 [1]: < 10 µM | TV (mm^3) End [2]: 844.5 ± 240.3^▴ mm^3 | TV (mm^3) Start [2]: 156.9 ± 64.5 mm^3 | T/C (%) [2]: 39.3% | Weight (g) End [2]: 25.2 ± 1.4 g | Weight (g) Start [2]: 24.9 ± 1.3 g | IC50 [3]: < 10 µM | IC50 (ErbB-4): < 10 µM | IC50 [4]: < 10 µM

N-(3-chloro-4-((3-fluorobenzyl)oxy)phenyl)-6-(5-((morpholinyl)methyl)-2-thienyl)-4-quinazolinamine [MS 33]
IC50 [1]: > 10 µM | IC50 [3]: > 10 µM | inhibition of c-ErbB4/HER4 (in words) (ErbB-4): very good inhibition | IC50 (ErbB-4): < 10 µM | inhibitory activity against EGFR (in words) [4]: better inhibitory activity | IC50 [4]: < 10 µM

CC(=O)OCCNCc1ccc(-c2ccc3ncnc(Nc4ccc(OCc5cccc(F)c5)c(Cl)c4)c3c2)o1
IC50 [1]: < 10 µM | IC50 [3]: < 10 µM | IC50 (ErbB-4): < 10 µM | IC50 [4]: < 10 µM

OCCNCc1ccc(-c2ccc3ncnc(Nc4ccc(OCc5cccc(F)c5)c(Cl)c4)c3c2)o1 [MS27·dimethanesulfonate, N-(3-chloro-4-((3-fluorobenzyl)oxy)phenyl)-6-(5-(((2-hydroxyethyl)amino)methyl)-2-furyl)-4-quinazolinamine]
T/C (%) (NCI-H1975 xenograft; [5]): 49.8^★ % | Tumor volume (mm^3) D 28 (NCI-H1975 xenograft; [5]): 1214.25 ± 944.16^★ mm^3 | Tumor volume (mm^3) D 0 (NCI-H1975 xenograft; NC1-H1975 xenograft, intragastric, D 0): 97.06 ± 38.91 mm^3 | activity against NC1-H1975 (in words) (NCI-H1975 xenograft): good activity | IC50 [1]: < 10 µM | TV (mm^3) End [2]: 775.6 ± 215.4^▴ mm^3 | TV (mm^3) Start [2]: 155.3 ± 71.2 mm^3 | T/C (%) [2]: 36.4% | Weight (g) End [2]: 25.6 ± 2.2 g | Weight (g) Start [2]: 25.0 ± 2.7 g | IC50 [3]: < 10 µM | IC50 (ErbB-4): < 10 µM | IC50 [4]: < 10 µM

OCCN(CCO)Cc1ccc(-c2ccc3ncnc(Nc4ccc(OCc5cccc(F)c5)c(Cl)c4)c3c2)o1 [MS18·dimethanesulfonate, N-(3-chloro-4-((3-fluorobenzyl)oxy)phenyl)-6-(5-((bis(2-hydroxyethyl)amino)methyl)-2-furyl)-4-quinazolinamine]
IC50 [1]: < 10 µM | IC50 [3]: < 10 µM | IC50 (ErbB-4): < 10 µM | IC50 [4]: < 10 µM

OCC(O)CNCc1ccc(-c2ccc3ncnc(Nc4ccc(OCc5cccc(F)c5)c(Cl)c4)c3c2)o1 (stereo not drawn) [MS31·dimethanesulfonate, N-(3-chloro-4-((3-fluorobenzyl)oxy)phenyl)-6-(5-((1-(2,3-dihydroxypropyl)amino)methyl)-2-furyl)-4-quinazolinamine]
IC50 [1]: < 10 µM | IC50 [3]: < 10 µM | IC50 (ErbB-4): < 10 µM | IC50 [4]: < 10 µM
